# Assay results as given in patent US8802597B2, “Herbicidal pyrimidines” (E I du Pont de Nemours and Company, priority 2003, dated 2014).
# Like-named read-outs stand apart in the source and are kept apart here.
# Experiments:
# Experiment in all cases: Test C pre/postemergence
# Type in all cases: in vivo
# [1] = test system: bermudagrass (Cynodon dactylon); details: for pest or weed control at 62 g/ha / pest or weed control at 125 g/ha / pest or weed control at 250 g/ha / pest or weed control at 500 g/ha: Cynodon dactylon
# Text: (§1) Seeds or nutlets of plant species selected from bermudagrass (Cynodon dactylon), Surinam grass (Brachiaria decumbens), cocklebur (Xanthium strumarium), corn (Zea mays), crabgrass (Digitaria sanguinalis), woolly cupgrass (Eriochloa villosa), giant foxtail (Setaria faberii), goosegrass (Eleusine indica), johnsongrass (Sorghum halepense), kochia (Kochia scoparia), lambsquarters (Chenopodium album), morningglory (Ipomoea coccinea), eastern black nightshade (Solanum ptycanthum), yellow nutsedge (Cyperus esculentus), pigweed (Amaranthus retroflexus), common ragweed (Ambrosia elatior), soybean (Glycine max), common (oilseed) sunflower (Helianthus annuus), and velvetleaf (Abutilon theophrasti) were planted and treated preemergence with test chemicals formulated in a non-phytotoxic solvent mixture which included a surfactant.
# (§2) At the same time, plants selected from these crop and weed species and also winter barley (Hordeum vulgare), blackgrass (Alopecurus myosuroides), canarygrass (Phalaris minor), chickweed (Stellaria media), downy brome (Bromus tectorum), green foxtail (Setaria viridis), Italian ryegrass (Lolium multiflorum), wheat (Triticum aestivum), wild oat (Avena fatua) and windgrass (Apera spica-venti) were treated with postemergence applications of some of the test chemicals formulated in the same manner. Plants ranged in height from 2 to 18 cm (1- to 4-leaf stage) for postemergence treatments. Plant species in the flooded paddy test consisted of rice (Oryza sativa), umbrella sedge (Cyperus difformis), duck salad (Heteranthera limosa) and barnyardgrass (Echinochloa crus-galli) grown to the 2-leaf stage for testing. Treated plants and controls were maintained in a greenhouse for 12 to 14 days, after which time all species were compared to controls and visually evaluated. Plant response ratings, summarized in Table C, are based on a scale of 0 to 100 where 0 is no effect and 100 is complete control. A dash (-) response means no test result.
# [2] = test system: giant foxtail (Setaria faberii); details: for pest or weed control at 125 g/ha / pest or weed control at 500 g/ha / pest or weed control at 62 g/ha / pest or weed control at 250 g/ha: Setaria faberi
# Text: as §1, §2
# [3] = test system: johnsongrass (Sorghum halepense); details: for pest or weed control at 62 g/ha / pest or weed control at 125 g/ha / pest or weed control at 250 g/ha / pest or weed control at 500 g/ha: Sorghum halepense
# Text: as §1, §2
# soybean (Glycine max) = details: for plant injury at 62 g/ha / plant injury at 125 g/ha / plant injury at 250 g/ha / plant injury at 500 g/ha: Glycine max
# Text: as §1, §2
# [4] = Postemergence, 62 g ai/ha, scale 0 to 100 (0 no effect, 100 complete control)
# [5] = Postemergence, 250 g ai/ha, scale 0 to 100
# [6] = Postemergence, 500 g ai/ha, scale 0 to 100
# [7] = Preemergence, 62 g ai/ha, scale 0 to 100, 0 no effect, 100 complete control
# [8] = Preemergence, 125 g ai/ha, scale 0 to 100
# [9] = Preemergence, 250 g ai/ha, scale 0 to 100
# [10] = Preemergence, 500 g ai/ha, scale 0 to 100
# [11] = Postemergence, 125 g ai/ha, scale 0 to 100 (0 no effect, 100 complete control)
# [12] = Preemergence, 31 g ai/ha, scale 0 to 100, 0 no effect, 100 complete control
compound,measurement,setting,value
Nc1nc(C2CC2)nc(C(=O)O)c1Br [Compound 8],pest or weed control at 62 g/ha,"[1]; post-emergence, Postemergence, 62 g ai/ha, scale 0 to 100 (0 no effect, 100 complete control), read-out: Bermudagrass plant response rating",50%
same,pest or weed control at 125 g/ha,"[1]; post-emergence, Postemergence, 125 g ai/ha, scale 0 to 100, read-out: Plant response rating, Bermudagrass",60%
same,pest or weed control at 250 g/ha,"[1]; post-emergence, Postemergence, 250 g ai/ha, scale 0 to 100, read-out: Plant response rating, Bermudagrass",65%
same,pest or weed control at 500 g/ha,"[1]; post-emergence, Postemergence, 500 g ai/ha, scale 0 to 100, read-out: Plant response rating, Bermudagrass",75%
same,pest or weed control at 62 g/ha,"[1]; pre-emergence, Preemergence, 62 g ai/ha, scale 0 to 100, 0 no effect, 100 complete control, read-out: Plant response rating, Bermudagrass",100%
same,pest or weed control at 125 g/ha,"[1]; pre-emergence, Preemergence, 125 g ai/ha, scale 0 to 100, read-out: Plant response rating, Bermudagrass",100%
same,pest or weed control at 250 g/ha,"[1]; pre-emergence, Preemergence, 250 g ai/ha, scale 0 to 100, read-out: Plant response rating, Bermudagrass",100%
same,pest or weed control at 500 g/ha,"[1]; pre-emergence, Preemergence, 500 g ai/ha, scale 0 to 100, read-out: Plant response rating, Bermudagrass",100%
same,pest or weed control at 125 g/ha,"[2]; post-emergence, Postemergence, 125 g ai/ha, scale 0 to 100 (0 no effect, 100 complete control), read-out: Foxtail, Giant plant response rating",60%
same,pest or weed control at 500 g/ha,"[2]; post-emergence, Postemergence, 500 g ai/ha, scale 0 to 100, read-out: Plant response rating, Foxtail, Giant",75%
same,pest or weed control at 62 g/ha,"[2]; post-emergence, Postemergence, 62 g ai/ha, scale 0 to 100 (0 no effect, 100 complete control), read-out: Foxtail, Giant plant response rating",40%
same,pest or weed control at 250 g/ha,"[2]; post-emergence, Postemergence, 250 g ai/ha, scale 0 to 100, read-out: Plant response rating, Foxtail, Giant",70%
same,pest or weed control at 62 g/ha,"[2]; pre-emergence, Preemergence, 62 g ai/ha, scale 0 to 100, 0 no effect, 100 complete control, read-out: Plant response rating, Foxtail, Giant",0%
same,pest or weed control at 125 g/ha,"[2]; pre-emergence, Preemergence, 125 g ai/ha, scale 0 to 100, read-out: Plant response rating, Foxtail, Giant",0%
same,pest or weed control at 250 g/ha,"[2]; pre-emergence, Preemergence, 250 g ai/ha, scale 0 to 100, read-out: Plant response rating, Foxtail, Giant",0%
same,pest or weed control at 500 g/ha,"[2]; pre-emergence, Preemergence, 500 g ai/ha, scale 0 to 100, read-out: Plant response rating, Foxtail, Giant",0%
same,pest or weed control at 62 g/ha,"[3]; post-emergence, Postemergence, 62 g ai/ha, scale 0 to 100 (0 no effect, 100 complete control), read-out: Johnsongrass plant response rating",30%
same,pest or weed control at 125 g/ha,"[3]; post-emergence, Postemergence, 125 g ai/ha, scale 0 to 100 (0 no effect, 100 complete control), read-out: Johnsongrass plant response rating",35%
same,pest or weed control at 250 g/ha,"[3]; post-emergence, Postemergence, 250 g ai/ha, scale 0 to 100, read-out: Plant response rating, Johnsongrass",45%
same,pest or weed control at 500 g/ha,"[3]; post-emergence, Postemergence, 500 g ai/ha, scale 0 to 100, read-out: Plant response rating, Johnsongrass",85%
same,pest or weed control at 62 g/ha,"[3]; pre-emergence, Preemergence, 62 g ai/ha, scale 0 to 100, 0 no effect, 100 complete control, read-out: Plant response rating, Johnsongrass",0%
same,pest or weed control at 125 g/ha,"[3]; pre-emergence, Preemergence, 125 g ai/ha, scale 0 to 100, read-out: Plant response rating, Johnsongrass",0%
same,pest or weed control at 250 g/ha,"[3]; pre-emergence, Preemergence, 250 g ai/ha, scale 0 to 100, read-out: Plant response rating, Johnsongrass",0%
same,pest or weed control at 500 g/ha,"[3]; pre-emergence, Preemergence, 500 g ai/ha, scale 0 to 100, read-out: Plant response rating, Johnsongrass",20%
same,plant injury at 62 g/ha,"soybean (Glycine max); post-emergence, Postemergence, 62 g ai/ha, scale 0 to 100 (0 no effect, 100 complete control), read-out: Soybean plant response rating",95%
same,plant injury at 125 g/ha,"soybean (Glycine max); post-emergence, Postemergence, 125 g ai/ha, scale 0 to 100 (0 no effect, 100 complete control), read-out: Soybean plant response rating",95%
same,plant injury at 250 g/ha,"soybean (Glycine max); post-emergence, Postemergence, 250 g ai/ha, scale 0 to 100, read-out: Plant response rating, Soybean",100%
same,plant injury at 500 g/ha,"soybean (Glycine max); post-emergence, Postemergence, 500 g ai/ha, scale 0 to 100, read-out: Plant response rating, Soybean",100%
same,plant injury at 62 g/ha,"soybean (Glycine max); pre-emergence, Preemergence, 62 g ai/ha, scale 0 to 100, 0 no effect, 100 complete control, read-out: Plant response rating, Soybean",100%
same,plant injury at 125 g/ha,"soybean (Glycine max); pre-emergence, Preemergence, 125 g ai/ha, scale 0 to 100, read-out: Plant response rating, Soybean",100%
same,plant injury at 250 g/ha,"soybean (Glycine max); pre-emergence, Preemergence, 250 g ai/ha, scale 0 to 100, read-out: Plant response rating, Soybean",100%
same,plant injury at 500 g/ha,"soybean (Glycine max); pre-emergence, Preemergence, 500 g ai/ha, scale 0 to 100, read-out: Plant response rating, Soybean",100%
COC(=O)CNc1nc(C2CC2)nc(C(=O)OC)c1Br [Compound 10],Bermudagrass plant response rating,[1]; [4],0
same,"Plant response rating, Bermudagrass",[1]; [5],0
same,"Plant response rating, Bermudagrass",[1]; [6],0
same,"Plant response rating, Bermudagrass","[1]; Postemergence, 125 g ai/ha, scale 0 to 100",0
same,"Plant response rating, Bermudagrass",[1]; [7],0
same,"Plant response rating, Bermudagrass",[1]; [8],0
same,"Plant response rating, Bermudagrass",[1]; [9],0
same,"Plant response rating, Bermudagrass",[1]; [10],0
same,"Foxtail, Giant plant response rating",[2]; [4],0
same,"Foxtail, Giant plant response rating",[2]; [11],0
same,"Plant response rating, Foxtail, Giant",[2]; [5],0
same,"Plant response rating, Foxtail, Giant",[2]; [6],0
same,"Plant response rating, Foxtail, Giant",[2]; [7],0
same,"Plant response rating, Foxtail, Giant",[2]; [8],0
same,"Plant response rating, Foxtail, Giant",[2]; [9],0
same,"Plant response rating, Foxtail, Giant",[2]; [10],0
same,Johnsongrass plant response rating,[3]; [4],0
same,Johnsongrass plant response rating,[3]; [11],0
same,"Plant response rating, Johnsongrass",[3]; [5],0
same,"Plant response rating, Johnsongrass",[3]; [6],0
same,"Plant response rating, Johnsongrass",[3]; [7],0
same,"Plant response rating, Johnsongrass",[3]; [8],0
same,"Plant response rating, Johnsongrass",[3]; [9],0
same,"Plant response rating, Johnsongrass",[3]; [10],0
same,Soybean plant response rating,soybean (Glycine max); [4],70
same,Soybean plant response rating,soybean (Glycine max); [11],80
same,"Plant response rating, Soybean",soybean (Glycine max); [5],90
same,"Plant response rating, Soybean",soybean (Glycine max); [6],100
same,"Plant response rating, Soybean",soybean (Glycine max); [7],0
CCOC(=O)c1nc(C2CC2)nc(N=CN(C)C)c1Br [Compound 40],"Plant response rating, Bermudagrass",[1]; [7],0
same,"Plant response rating, Bermudagrass",[1]; [8],0
same,"Plant response rating, Bermudagrass",[1]; [9],0
same,"Plant response rating, Bermudagrass",[1]; [10],70
same,"Plant response rating, Foxtail, Giant",[2]; [7],0
same,"Plant response rating, Foxtail, Giant",[2]; [8],0
same,"Plant response rating, Foxtail, Giant",[2]; [9],30
same,"Plant response rating, Foxtail, Giant",[2]; [10],35
same,"Plant response rating, Johnsongrass",[3]; [7],0
same,"Plant response rating, Johnsongrass",[3]; [8],80
same,"Plant response rating, Johnsongrass",[3]; [9],80
same,"Plant response rating, Johnsongrass",[3]; [10],95
same,"Plant response rating, Soybean",soybean (Glycine max); [7],10
same,"Plant response rating, Soybean",soybean (Glycine max); [8],40
same,"Plant response rating, Soybean",soybean (Glycine max); [9],90
same,"Plant response rating, Soybean",soybean (Glycine max); [10],95
CCOC(=O)Cc1nc(C2CC2)nc(N=CN(C)C)c1Br [Compound 33],"Plant response rating, Bermudagrass",[1]; [7],0
same,"Plant response rating, Bermudagrass",[1]; [8],0
same,"Plant response rating, Bermudagrass",[1]; [9],0
same,"Plant response rating, Bermudagrass",[1]; [10],0
same,"Plant response rating, Foxtail, Giant",[2]; [7],0
same,"Plant response rating, Foxtail, Giant",[2]; [8],10
same,"Plant response rating, Foxtail, Giant",[2]; [9],50
same,"Plant response rating, Foxtail, Giant",[2]; [10],50
same,"Plant response rating, Johnsongrass",[3]; [7],0
same,"Plant response rating, Johnsongrass",[3]; [8],5
same,"Plant response rating, Johnsongrass",[3]; [9],10
same,"Plant response rating, Johnsongrass",[3]; [10],40
same,"Plant response rating, Soybean",soybean (Glycine max); [7],0
same,"Plant response rating, Soybean",soybean (Glycine max); [8],30
same,"Plant response rating, Soybean",soybean (Glycine max); [9],80
same,"Plant response rating, Soybean",soybean (Glycine max); [10],90
CCOC(=O)Cc1nc(C2CC2)nc(N)c1Br [Compound 12],"Plant response rating, Bermudagrass",[1]; [12],0
same,"Plant response rating, Bermudagrass",[1]; [7],0
same,"Plant response rating, Bermudagrass",[1]; [8],0
same,"Plant response rating, Bermudagrass",[1]; [9],20
same,"Plant response rating, Foxtail, Giant",[2]; [12],0
same,"Plant response rating, Foxtail, Giant",[2]; [7],0
same,"Plant response rating, Foxtail, Giant",[2]; [8],0
same,"Plant response rating, Foxtail, Giant",[2]; [9],0
same,"Plant response rating, Johnsongrass",[3]; [12],0
same,"Plant response rating, Johnsongrass",[3]; [7],0
same,"Plant response rating, Johnsongrass",[3]; [8],5
same,"Plant response rating, Johnsongrass",[3]; [9],5
same,"Plant response rating, Soybean",soybean (Glycine max); [7],50
same,"Plant response rating, Soybean",soybean (Glycine max); [9],70
